Assay results as given in patent US20180200257A1, “METHODS FOR THE TREATMENT OF INFLAMMATORY DISORDERS” (Galapagos NV, priority 2015, published 2018).

Test system: subjects with moderately to severely active RA who have an inadequate response to methotrexate (MTX)
Test: Study 1 (add-on to MTX) - serum CRP values
Type: in vivo, human
Protocol: Double-blind, placebo-controlled add on study in subjects with moderately to severely active RA who have an inadequate response to methotrexate (MTX) (oral or parenteral).
595 subjects randomized to one of 6 dose regimens of Compound 1 (dosed as [Compound 1:HCl:3H2O]) (3 dose levels administered either once or twice daily) or placebo on top of each subject's stable dose of MTX.
Compound 1 (dosed as [Compound 1:HCl:3H2O]) is dosed for twelve weeks once daily (q.d.) (50 mg, 100 mg or 200 mg) or twice daily (b.i.d.) (25 mg, 50 mg or 100 mg); or placebo.
At Week 12, the subjects on placebo who have not achieved 20% improvement in swollen joint count (SJC66) and tender joint count (TJC68) are re-randomized automatically to receive Compound 1 (dosed as a [Compound 1:HCl:3H2O]) either at 100 mg q.d. or 50 mg b.i.d. doses in a blinded fashion; subjects on 50 mg q.d. who have not achieved 20% improvement in SJC66 and TJC68 will be assigned to 100 mg q.d. and subjects on 25 mg b.i.d. that have not achieved a 20% improvement in SJC66 and TJC68 will be assigned to 50 mg b.i.d. Subjects who switch treatment at week 12 are handled as if they discontinued at week 12 for the purpose of statistical analysis, whereas subjects in the other groups will maintain their randomized treatment until Week 24.
CRP determination is available at Quest Diagnostics, Clinical Trials, Quest House, 125-135 Staines Road, Hounslow, Middlesex, TW3 3JB, United Kingdom under Catalogue n#86140.
The determination of CRP is made using Immunoturbidimetric assay for the in vitro quantitative determination of CRP in human serum and plasma on Roche/Hitachi cobas c systems, wherein human CRP agglutinates with latex particles coated with monoclonal anti-CRP antibodies. The aggregates are determined turbidimetrically (Eda et al., 1998; Price et al., 1987).
Human serum and plasma samples CRP determination was done on a Roche/Hitachi Cobas c 301 c 501/502 system which automatically calculate the analyte concentration of each sample. Samples containing precipitates are centrifuged before performing the assay.
The machine parameters are listed in Table XCI and Table XCII below, and the results at 12 weeks v using either LOCF are shown in Table XCIII and below. The Hommel-corrected p-value for the pairwise comparisons of each group with placebo is shown.
The number of subjects (N) provided in each groups corresponds to the number of subjects starting the study in each group, and the CRP data reported below corresponds to the responding subjects continuing for the entire 24 weeks on their initial treatment course.

SMILES: O=C(Nc1nc2cccc(-c3ccc(CN4CCS(=O)(=O)CC4)cc3)n2n1)C1CC1 [Compound 1, cyclopropanecarboxylic acid {5-[4-(1,1-dioxo-thiomorpholin-4-ylmethyl)-phenyl]-[1,2,4]triazolo[1,5-a]pyridin-2-yl}-amide]
- CRP mean CFB mg/L (LOCF) (50 mg q.d., week 1, 12 weeks results): -7.95 mg/L
- CRP mean CFB mg/L (LOCF) (50 mg q.d., week 1, 24 weeks results): -7.95 mg/L
- CRP mean CFB mg/L (LOCF) (50 mg q.d., week 2, 12 weeks results): -8.23 mg/L
- CRP mean CFB mg/L (LOCF) (50 mg q.d., week 2, 24 weeks results): -8.23 mg/L
- CRP mean CFB mg/L (LOCF) (50 mg q.d., week 4, 12 weeks results): -10.18 mg/L
- CRP mean CFB mg/L (LOCF) (50 mg q.d., week 4, 24 weeks results): -10.18 mg/L
- CRP mean CFB mg/L (LOCF) (50 mg q.d., week 12, 12 weeks results): -13.15 mg/L
- CRP mean CFB mg/L (LOCF) (50 mg q.d., week 12, 24 weeks results): -13.15 mg/L
- CRP mean CFB mg/L (LOCF) (50 mg q.d., week 16, 24 weeks results): -13.55 mg/L
- CRP mean CFB mg/L (LOCF) (50 mg q.d., week 20, 24 weeks results): -13.12 mg/L
- CRP mean CFB mg/L (LOCF) (50 mg q.d., week 24, 24 weeks results): -15.22 mg/L
- CRP mean CFB mg/L (LOCF) (50 mg q.d., week 8, 12 weeks results): -12.02 mg/L
- CRP mean CFB mg/L (LOCF) (50 mg q.d., week 8, 24 weeks results): -12.02 mg/L
- CRP mean CFB mg/L (LOCF) (100 mg q.d., week 1, 12 weeks results): -11.02 mg/L
- CRP mean CFB mg/L (LOCF) (100 mg q.d., week 1, 24 weeks results): -11.02 mg/L
- CRP mean CFB mg/L (LOCF) (100 mg q.d., week 2, 12 weeks results): -12.94 mg/L
- CRP mean CFB mg/L (LOCF) (100 mg q.d., week 2, 24 weeks results): -12.94 mg/L
- CRP mean CFB mg/L (LOCF) (100 mg q.d., week 4, 12 weeks results): -13.18 mg/L
- CRP mean CFB mg/L (LOCF) (100 mg q.d., week 4, 24 weeks results): -13.18 mg/L
- CRP mean CFB mg/L (LOCF) (100 mg q.d., week 8, 24 weeks results): -12.48 mg/L
- CRP mean CFB mg/L (LOCF) (100 mg q.d., week 12, 12 weeks results): -13.57 mg/L
- CRP mean CFB mg/L (LOCF) (100 mg q.d., week 12, 24 weeks results): -13.57 mg/L
- CRP mean CFB mg/L (LOCF) (100 mg q.d., week 16, 24 weeks results): -11.66 mg/L
- CRP mean CFB mg/L (LOCF) (100 mg q.d., week 20, 24 weeks results): -14.50 mg/L
- CRP mean CFB mg/L (LOCF) (100 mg q.d., week 24, 24 weeks results): -14.89 mg/L
- CRP mean CFB mg/L (LOCF) (100 mg q.d., week 8, 12 weeks results): -12.48 mg/L
- CRP mean CFB mg/L (LOCF) (200 mg q.d., week 1, 12 weeks results): -17.06 mg/L
- CRP mean CFB mg/L (LOCF) (200 mg q.d., week 1, 24 weeks results): -17.06 mg/L
- CRP mean CFB mg/L (LOCF) (200 mg q.d., week 2, 12 weeks results): -17.51 mg/L
- CRP mean CFB mg/L (LOCF) (200 mg q.d., week 2, 24 weeks results): -17.51 mg/L
- CRP mean CFB mg/L (LOCF) (200 mg q.d., week 4, 12 weeks results): -17.94 mg/L
- CRP mean CFB mg/L (LOCF) (200 mg q.d., week 4, 24 weeks results): -17.94 mg/L
- CRP mean CFB mg/L (LOCF) (200 mg q.d., week 8, 24 weeks results): -17.22 mg/L
- CRP mean CFB mg/L (LOCF) (200 mg q.d., week 12, 12 weeks results): -17.24 mg/L
- CRP mean CFB mg/L (LOCF) (200 mg q.d., week 12, 24 weeks results): -17.24 mg/L
- CRP mean CFB mg/L (LOCF) (200 mg q.d., week 16, 24 weeks results): -20.38 mg/L
- CRP mean CFB mg/L (LOCF) (200 mg q.d., week 20, 24 weeks results): -17.89 mg/L
- CRP mean CFB mg/L (LOCF) (200 mg q.d., week 24, 24 weeks results): -15.57 mg/L
- CRP mean CFB mg/L (LOCF) (200 mg q.d., week 8, 12 weeks results): -17.22 mg/L
- CRP mean CFB mg/L (LOCF) (2 × 25 mg b.i.d., week 2, 12 weeks results): -10.06 mg/L
- CRP mean CFB mg/L (LOCF) (2 × 25 mg b.i.d., week 2, 24 weeks results): -10.06 mg/L
- CRP mean CFB mg/L (LOCF) (2 × 25 mg b.i.d., week 4, 12 weeks results): -7.72 mg/L
- CRP mean CFB mg/L (LOCF) (2 × 25 mg b.i.d., week 4, 24 weeks results): -7.72 mg/L
- CRP mean CFB mg/L (LOCF) (2 × 25 mg b.i.d., week 8, 12 weeks results): -10.94 mg/L
- CRP mean CFB mg/L (LOCF) (2 × 25 mg b.i.d., week 8, 24 weeks results): -10.94 mg/L
- CRP mean CFB mg/L (LOCF) (2 × 25 mg b.i.d., week 12, 12 weeks results): -10.26 mg/L
- CRP mean CFB mg/L (LOCF) (2 × 25 mg b.i.d., week 12, 24 weeks results): -10.26 mg/L
- CRP mean CFB mg/L (LOCF) (2 × 25 mg b.i.d., week 16, 24 weeks results): -12.55 mg/L
- CRP mean CFB mg/L (LOCF) (2 × 25 mg b.i.d., week 20, 24 weeks results): -12.20 mg/L
- CRP mean CFB mg/L (LOCF) (2 × 25 mg b.i.d., week 24, 24 weeks results): -11.68 mg/L
- CRP mean CFB mg/L (LOCF) (2 × 25 mg b.i.d., Week 1, 12 weeks results): -8.47 mg/L
- CRP mean CFB mg/L (LOCF) (2 × 25 mg b.i.d., Week 1, 24 weeks results): -8.47 mg/L
- CRP mean CFB mg/L (LOCF) (2 × 50 mg b.i.d., week 2, 12 weeks results): -11.03 mg/L
- CRP mean CFB mg/L (LOCF) (2 × 50 mg b.i.d., week 2, 24 weeks results): -11.03 mg/L
- CRP mean CFB mg/L (LOCF) (2 × 50 mg b.i.d., week 4, 12 weeks results): -13.28 mg/L
- CRP mean CFB mg/L (LOCF) (2 × 50 mg b.i.d., week 4, 24 weeks results): -13.28 mg/L
- CRP mean CFB mg/L (LOCF) (2 × 50 mg b.i.d., week 8, 12 weeks results): -13.25 mg/L
- CRP mean CFB mg/L (LOCF) (2 × 50 mg b.i.d., week 8, 24 weeks results): -13.25 mg/L
- CRP mean CFB mg/L (LOCF) (2 × 50 mg b.i.d., week 12, 12 weeks results): -12.97 mg/L
- CRP mean CFB mg/L (LOCF) (2 × 50 mg b.i.d., week 12, 24 weeks results): -12.97 mg/L
- CRP mean CFB mg/L (LOCF) (2 × 50 mg b.i.d., week 16, 24 weeks results): -12.57 mg/L
- CRP mean CFB mg/L (LOCF) (2 × 50 mg b.i.d., week 20, 24 weeks results): -13.16 mg/L
- CRP mean CFB mg/L (LOCF) (2 × 50 mg b.i.d., week 24, 24 weeks results): -11.96 mg/L
- CRP mean CFB mg/L (LOCF) (2 × 50 mg b.i.d., Week 1, 12 weeks results): -10.08 mg/L
- CRP mean CFB mg/L (LOCF) (2 × 50 mg b.i.d., Week 1, 24 weeks results): -10.08 mg/L
- CRP mean CFB mg/L (LOCF) (2 × 100 mg b.i.d., week 2, 12 weeks results): -19.69 mg/L
- CRP mean CFB mg/L (LOCF) (2 × 100 mg b.i.d., week 2, 24 weeks results): -19.69 mg/L
- CRP mean CFB mg/L (LOCF) (2 × 100 mg b.i.d., week 4, 12 weeks results): -20.64 mg/L
- CRP mean CFB mg/L (LOCF) (2 × 100 mg b.i.d., week 4, 24 weeks results): -20.64 mg/L
- CRP mean CFB mg/L (LOCF) (2 × 100 mg b.i.d., week 8, 12 weeks results): -21.32 mg/L
- CRP mean CFB mg/L (LOCF) (2 × 100 mg b.i.d., week 8, 24 weeks results): -21.32 mg/L
- CRP mean CFB mg/L (LOCF) (2 × 100 mg b.i.d., week 12, 12 weeks results): -20.54 mg/L
- CRP mean CFB mg/L (LOCF) (2 × 100 mg b.i.d., week 12, 24 weeks results): -20.54 mg/L
- CRP mean CFB mg/L (LOCF) (2 × 100 mg b.i.d., week 16, 24 weeks results): -21.34 mg/L
- CRP mean CFB mg/L (LOCF) (2 × 100 mg b.i.d., week 20, 24 weeks results): -20.80 mg/L
- CRP mean CFB mg/L (LOCF) (2 × 100 mg b.i.d., week 24, 24 weeks results): -20.82 mg/L
- CRP mean CFB mg/L (LOCF) (2 × 100 mg b.i.d., Week 1, 12 weeks results): -17.39 mg/L
- CRP mean CFB mg/L (LOCF) (2 × 100 mg b.i.d., Week 1, 24 weeks results): -17.39 mg/L
